According to paper PMC5817852 (The Open Medicinal Chemistry Journal, 2018):
Read-outs that look alike come from different tables or passages of the source.

How the values were obtained:
[1] = tested on: HT29 colorectal carcinoma; assay: qHTS cell viability screen (Cell Titer Glo), HT29; format: cell-based
[2] = tested on: PC3 prostate cancer cell line; assay: qHTS cell viability screen (Cell Titer Glo), PC3; format: cell-based; conditions: for CC50: read-out: CC50 PC3
[3] = tested on: MDA-MB-231 breast cancer cell line; assay: qHTS cell viability screen (Cell Titer Glo), MDA-MB-231; format: cell-based
[4] = tested on: NALM16 cell line (acute lymphoblastic leukemia); assay: Additional cancer cell line panel, NALM16; format: cell-based, human; conditions: confidence intervals in parentheses, NA: not active
[5] = tested on: RAJI cells (Burkitt's leukaemia/lymphoma); assay: Additional cancer cell line panel, RAJI; format: cell-based; conditions: confidence intervals in parentheses, NA: not active
[6] = tested on: Acute T cell leukemia Jurkat e6-1 cells (JURKT); assay: Additional cancer cell line panel, JURKT; format: cell-based; conditions: confidence intervals in parentheses, NA: not active
[7] = tested on: REH cells (precursor B-cell ALL); assay: Additional cancer cell line panel, REH; format: cell-based, human; conditions: read-out: EC50 REH
[8] = tested on: Cell line 697 (ALL in relapse); assay: Additional cancer cell line panel, 697; format: cell-based, human; conditions: confidence intervals in parentheses, NA: not active
Text: (§1) Most analogs in the presented series are lipophilic while also containing a positively charged amine. Lipophilic basic amines can accumulate in cell membranes if their lipophilic atom groups form favorable non-polar contacts with lipid chains while their charged amine is interacting with fatty acid head groups. Such association with lipids can lead to cytotoxicity through membrane destabilization. Therefore, we evaluated a number of representative compounds against BJ cells, a normal human foreskin fibroblast cell line, where cytotoxicity was determined at 10 µM drug concentration, as described previously.
(§2) minimum locked at 0 and 100 respectively.
(§3) children with ALL in relapse.
(§4) foreskin fibroblast cell line (BJ).
(§5) Table 2. […] SSA: Sulindac sulfide

[9] = tested on: BJ cells, normal human foreskin fibroblast cell line; assay: BJ cell cytotoxicity counter screen
Text: as §1, §2, §3, §4, §5

[10] = BJ cell cytotoxicity counter screen; conditions: human
Text: as §1, §2, §3, §4, §5

COX-1 = tested on: COX-1; parameters: method as in PMID 19470791; conditions: cited from earlier work
COX-2 = tested on: COX-2; parameters: method as in PMID 19470791; conditions: cited from earlier work
[11] = confidence intervals in parentheses, NA: not active
[12] = read-out: EC50 BJ (cytotoxicity), BJ normal human foreskin fibroblasts, confidence intervals in parentheses
[13] = 72 h, PC3 prostate, 72 hours, cell viability Cell Titer Glo
[14] = PC3 prostate, 72 hours, cell viability Cell Titer Glo
[15] = Homo sapiens, MDA-MB-231, 96 h, MDA-MB-231 breast, 96 hours, cell viability Cell Titer Glo, read-out: CC50 MDA-MB-231
[16] = MDA-MB-231 breast, 96 hours, cell viability Cell Titer Glo, read-out: CC50 MDA-MB-231
[17] = Homo sapiens, REH, confidence intervals in parentheses, NA: not active
[18] = BJ cells (normal human foreskin fibroblast cell line)
[19] = Homo sapiens, HT-29, 72 h, HT29 colorectal carcinoma, 72 hours, cell viability Cell Titer Glo, read-out: CC50 HT29

| Compound | EC50 [4] [µM] | EC50 [7, 17] [µM] | CC50 [2, 13] [µM] | CC50 [2, 14] [µM] | CC50 [3, 15] [µM] | CC50 [3, 16] [µM] | EC50 [10, 18] [µM] | also measured |
| --- | --- | --- | --- | --- | --- | --- | --- | --- |
| 3,4,5-trimethoxybenzylidene-3-indenylmethyl-2-phenylacetamide [Compound 26] | 8.1 | – | – | – | – | – | – | increased anticancer activity in comparison with SSA, colon cancer cells ([1]; versus SSA): 6-7 fold; increased anticancer activity in comparison with SSA, prostate cancer cells ([2]; versus SSA): 6-7 fold; increased anticancer activity in comparison with SSA, breast cancer cells ([3]; versus SSA): 27 fold; EC50 [5]: 8.3 µM; EC50 [6]: 11 µM; EC50 [7, 11]: 19 µM; EC50 [8]: 15 µM; EC50 [9, 12]: > 22.7 µM |
| CSc1ccc(/C=C2/C(C)=C(CNC(=O)[C@@H](N)CC(C)C)c3cc(F)ccc32)cc1 [Compound 23] | – | 16 | < 10 | 6.21 ± 0.49 | < 10 | 6.7 ± 0.71 | 16.4 | EC50 ([4]; Homo sapiens, NALM16): 30 µM |
| CSc1ccc(/C=C2/C(C)=C(CNC(=O)[C@@H](N)C(C)C)c3cc(F)ccc32)cc1 [Compound 24] | – | 14 | < 10 | 5.16 ± 0.5 | < 10 | 6.81 ± 0.63 | 16.7 | EC50 ([5]; Homo sapiens, Raji): 39 µM; EC50 ([6]; Homo sapiens, Jurkat E6.1): 15 µM; EC50 ([8]; Homo sapiens): 16 µM; melting point: 133 to 135 °C |
| COc1cc(/C=C2/C(C)=C(CNC(=O)CN)c3cc(F)ccc32)cc(OC)c1OC [Compound 29] | 230 | – | – | 17.9 ± 2.08 | – | 9.92 ± 2.13 | – | CC50 ([1]; HT29 colorectal carcinoma, 72 hours, cell viability Cell Titer Glo, read-out: CC50 HT29): 8.51 ± 1.7 µM; EC50 [9, 12]: > 22.7 µM |
| COc1cc(/C=C2/C(C)=C(CNC(=O)[C@@H](N)CO)c3cc(F)ccc32)cc(OC)c1OC [Compound 30] | – | 53 | 26.5 ± 6.01 | – | 11.9 ± 2.27 | – | > 22.7 | CC50 [1, 19]: 11.1 ± 1.35 µM; melting point: 118 to 120 °C |
| COc1cc(/C=C2/C(C)=C(CNC(=O)[C@@H](N)CC(C)C)c3cc(F)ccc32)cc(OC)c1OC [Compound 31] | – | – | – | – | – | – | – | CC50 ([1]; Homo sapiens, HT-29, 72 h, read-out: CC50 HT29): 5.21 ± 0.39 µM; CC50 ([2]; 72 h): 12 ± 1.47 µM; CC50 ([3]; Homo sapiens, MDA-MB-231, 96 h, read-out: CC50 MDA-MB-231): 8.87 ± 1.38 µM; EC50 ([7]; Homo sapiens, REH): 16 µM; EC50 [10]: > 22.7 µM |
| CSc1ccc(/C=C2/C(C)=C(CC(=O)NCCN(C)C)c3cc(F)ccc32)cc1 [SSA, Sulindac sulfide amide, reference compound] | – | – | 3.12 ± 0.15 | – | 2.67 ± 0.08 | – | – | CC50 [1, 19]: 0.65 ± 0.03 µM; EC50 [9, 12]: > 7.57 µM; activity against COX-1 (COX-1): no activity; activity against COX-2 (COX-2): no activity |

Continued, in another order:

| EC50 [4] [µM] | EC50 [7, 17] [µM] | Compound | CC50 [2, 13] [µM] | CC50 [2, 14] [µM] | CC50 [3, 15] [µM] | CC50 [3, 16] [µM] | EC50 [10, 18] [µM] | also measured |
| --- | --- | --- | --- | --- | --- | --- | --- | --- |
| – | 21 | COc1cc(/C=C2/C(C)=C(CNC(=O)[C@@H](N)C(C)C)c3cc(F)ccc32)cc(OC)c1OC [Compound 32] | < 10 | 8.11 ± 0.41 | < 10 | 7.3 ± 0.73 | > 22.7 | EC50 ([5]; Homo sapiens, Raji): 110 µM |
| – | 38 | COc1cc(/C=C2/C(C)=C(CNC(=O)[C@@H]3CCCN3)c3cc(F)ccc32)cc(OC)c1OC [Compound 33] | 11.9 ± 1.56 | – | 8.2 ± 0.99 | – | > 22.7 | CC50 [1, 19]: 5.67 ± 1.67 µM; EC50 ([6]; Homo sapiens, Jurkat E6.1): 33 µM; melting point: 64 to 66 °C |
| 0.051 | – | CSc1ccc(/C=C2/C(C)=C(CN(Cc3ccncc3)Cc3ccncc3)c3cc(F)ccc32)cc1 [Compound 49] | – | 12.7 ± 1.44 | – | – | – | CC50 [1]: 10.8 ± 1.84 µM; CC50 [3]: 9.5 ± 2.14 µM; EC50 [9]: > 22.7 µM |
| 32 | – | COc1cc(/C=C2/C(C)=C(CN(Cc3ccncc3)Cc3ccncc3)c3cc(F)ccc32)cc(OC)c1OC [Compound 56] | – | 9.09 ± 0.87 | – | – | – | EC50 [5]: 58 µM; EC50 [7, 11]: 32 µM; EC50 [9]: > 22.7 µM |
